Values of other authors in paper PMC10650486, “Fluoroquinolone-Based Organic Salts (GUMBOS) with Antibacterial Potential” (International Journal of Molecular Sciences, 2023).

Legend:
[1] = tested on: S. aureus; settings: cited from earlier work
[2] = tested on: S. aureus; set-up: method as in earlier work; settings: cited from earlier work
[3] = cited from earlier work
[4] = tested on: E. coli; set-up: method as in earlier work; settings: cited from earlier work
[5] = tested on: E. coli O157:H7; set-up: method as in PMID 23447139; settings: same E. coli O157:H7 strain; cited from earlier work

SMILES | MIC [1] | epidemiologic cutoff value (ECOFF) [2] | logKO/W [3] | epidemiologic cutoff value (ECOFF) [4] | concentrations at which growth was inhibited [5]
COc1c(N2C[C@@H]3CCCN[C@@H]3C2)c(F)cc2c(=O)c(C(=O)O)cn(C3CC3)c12 [[Mox], moxifloxacin] | 0.032 to 2 mg/L | 0.25 mg·L^−1 | −0.28 | 0.25 mg·L^−1 | 
CC1(C)SC2C(NC(=O)C(N)c3ccccc3)C(=O)N2C1C(=O)O.CC1(C)SC2C(NC(=O)C(N)c3ccccc3)C(=O)N2C1C(=O)O.N=C(NCCCCCCNC(=N)NC(=N)Nc1ccc(Cl)cc1)NC(=N)Nc1ccc(Cl)cc1 [chlorhexidine di-ampicillin] |  |  |  |  | 0.06 to 0.12 mg/L
O=C(O)c1cn(C2CC2)c2cc(N3CCNCC3)c(F)cc2c1=O [[Cip], ciprofloxacin] |  | 2 mg·L^−1 | −0.13 | 0.06 mg·L^−1 | 
